Consider three compounds from BindingDB's records for doi:10.1016/j.bmcl.2015.05.099 (Mercer University, 2015).

The target in assay [1] is T1, Albumin (Homo sapiens, UniProt P02768). Description: Binding affinity to human serum albumin with excitation at 285 nm after 30 mins by fluorescence spectrophotometric analysis.
The target in assay [2] is T1, Albumin. Description: Binding affinity to human serum albumin with excitation at 295 nm after 30 mins by fluorescence spectrophotometric analysis.

T1 sequence (P02768 whole entry): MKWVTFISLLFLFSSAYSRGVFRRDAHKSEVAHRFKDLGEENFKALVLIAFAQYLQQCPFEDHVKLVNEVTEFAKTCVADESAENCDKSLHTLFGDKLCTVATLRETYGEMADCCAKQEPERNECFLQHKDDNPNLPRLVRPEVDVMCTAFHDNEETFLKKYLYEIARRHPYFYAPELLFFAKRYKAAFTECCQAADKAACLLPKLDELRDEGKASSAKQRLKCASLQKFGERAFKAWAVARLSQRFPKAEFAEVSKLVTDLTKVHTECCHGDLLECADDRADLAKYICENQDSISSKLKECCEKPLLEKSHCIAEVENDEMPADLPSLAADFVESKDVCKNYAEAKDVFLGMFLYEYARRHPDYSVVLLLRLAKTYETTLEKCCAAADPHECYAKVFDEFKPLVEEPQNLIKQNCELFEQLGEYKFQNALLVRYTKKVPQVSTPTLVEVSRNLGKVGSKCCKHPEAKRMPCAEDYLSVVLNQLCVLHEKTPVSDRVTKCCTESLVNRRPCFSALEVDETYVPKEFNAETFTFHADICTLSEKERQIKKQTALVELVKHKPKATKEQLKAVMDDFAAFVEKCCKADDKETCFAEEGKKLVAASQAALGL

Consider `C=C(C)[C@@H]1CC[C@]2(C(=O)[O-])CC[C@]3(C)[C@H](CC[C@@H]4[C@@]5(C)CC[C@H](O)C(C)(C)[C@@H]5CC[C@]43C)[C@@H]12.CCCCCCCCCCCC[N+](C)(C)Cc1ccccc1`, for which the Kd (usually the equilibrium constant for the complex coming apart) in assay [1] stood at 1.6 µM; in assay [2] it was 1.9 µM.

`C=C(C)[C@@H]1CC[C@]2(C(=O)N[C@H](C)C(=O)O)CC[C@]3(C)[C@H](CC[C@@H]4[C@@]5(C)CC[C@H](O)C(C)(C)[C@@H]5CC[C@]43C)[C@@H]12`: the Kd is 47 µM in assay [1] and 37 µM in assay [2].

`C=C(C)[C@@H]1CC[C@]2(C(=O)N[C@H](C)C(=O)[O-])CC[C@]3(C)[C@H](CC[C@@H]4[C@@]5(C)CC[C@H](O)C(C)(C)[C@@H]5CC[C@]43C)[C@@H]12.CCCCCCCCCCCC[N+](C)(C)Cc1ccccc1`: the Kd in assay [1] and in assay [2] was 19 µM in each case.
